Results: PubChem BioAssay (NCI)
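Dose response: 5 concentrations. Exposure: 48 h. Format: 96-well plates. Endpoint: linear interpolation; highest concentration if not reached. Abbreviation: GI50, concentration required for 50% inhibition of growth. TGI: concentration producing complete growth inhibition.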

Tests used:
Experiment in all cases: growth of human tumour cells (NCI), 48 h
[1] = test system: A498 renal
[2] = test system: MDA-MB-231 breast
[3] = test system: IGROV1 ovarian
[4] = test system: SNB-19 CNS
[5] = test system: OVCAR-8 ovarian
[6] = test system: RPMI-8226 leukemia
[7] = test system: UACC-257 melanoma
[8] = test system: DU-145 prostate
[9] = test system: MCF7 breast
[10] = test system: A549 NSCLC
[11] = test system: SK-OV-3 ovarian
[12] = test system: SN12C renal
[13] = test system: CCRF-CEM leukemia
[14] = test system: NCI-H23 lung
[15] = test system: PC-3 prostate
[16] = test system: HT29 colon
[17] = test system: MDA-MB-435
[18] = test system: TK-10 renal
[19] = test system: SNB-75 CNS
[20] = test system: M14 melanoma
[21] = test system: HL-60(TB) leukemia
[22] = test system: HCT-116 colon
[23] = test system: HS 578T breast
[24] = test system: EKVX NSCLC
[25] = test system: SF-539 CNS
[26] = test system: K-562 leukemia
[27] = test system: SR leukemia
[28] = test system: 786-0 renal
[29] = test system: LOX IMVI melanoma
[30] = test system: UO-31 renal
[31] = test system: CAKI-1 renal
[32] = test system: BT-549 breast
[33] = test system: HCT-15 colon
[34] = test system: NCI-H460 lung
[35] = test system: SK-MEL-28 melanoma
[36] = test system: MOLT-4 leukemia
[37] = test system: U251 CNS
[38] = test system: KM12 colon
[39] = test system: SK-MEL-2 melanoma
[40] = test system: NCI/ADR-RES ovarian
[41] = test system: NCI-H226 lung
[42] = test system: SW-620 colon
[43] = test system: HOP-62 NSCLC
[44] = test system: UACC-62 melanoma
[45] = test system: SF-295 CNS
[46] = test system: NCI-H522 lung
[47] = test system: COLO 205 colon
[48] = test system: T-47D breast
[49] = test system: ACHN renal
[50] = test system: SK-MEL-5 melanoma
[51] = test system: OVCAR-5 ovarian
[52] = test system: OVCAR-4 ovarian
[53] = test system: MDA-N
[54] = test system: SF-268 CNS
[55] = test system: OVCAR-3 ovarian
[56] = test system: MALME-3M melanoma
[57] = test system: HOP-92 NSCLC
[58] = test system: HCC-2998 colon
[59] = test system: RXF 393 renal

SMILES: CC1COC(c2cn[nH]c2C(N)=O)C1O (stereo not drawn)
- TGI [1]: > 100 µM
- TGI [2]: > 100 µM
- TGI [3]: > 100 µM
- TGI [4]: > 100 µM
- TGI [5]: > 100 µM
- TGI [6]: > 100 µM
- TGI [7]: > 100 µM
- TGI [8]: > 100 µM
- TGI [9]: > 100 µM
- TGI [10]: > 100 µM
- TGI [11]: > 100 µM
- TGI [12]: > 100 µM
- TGI [13]: > 100 µM
- TGI [14]: > 100 µM
- TGI [15]: > 100 µM
- TGI [16]: > 100 µM
- TGI [17]: > 100 µM
- TGI [18]: > 100 µM
- TGI [19]: > 100 µM
- TGI [20]: > 100 µM
- TGI [21]: > 100 µM
- TGI [22]: > 100 µM
- TGI [23]: > 100 µM
- TGI [24]: > 100 µM
- TGI [25]: > 100 µM
- TGI [26]: > 100 µM
- TGI [27]: > 100 µM
- TGI [28]: > 100 µM
- TGI [29]: > 100 µM
- TGI [30]: > 100 µM
- TGI [31]: > 100 µM
- TGI [32]: > 100 µM
- TGI [33]: > 100 µM
- TGI [34]: > 100 µM
- TGI [35]: > 100 µM
- TGI [36]: > 100 µM
- TGI [37]: > 100 µM
- TGI [38]: > 100 µM
- TGI [39]: > 100 µM
- TGI [40]: > 100 µM
- TGI [41]: > 100 µM
- TGI [42]: > 100 µM
- TGI [43]: > 100 µM
- TGI [44]: > 100 µM
- TGI [45]: > 100 µM
- TGI [46]: > 100 µM
- TGI [47]: > 100 µM
- TGI [48]: > 100 µM
- TGI [49]: > 100 µM
- TGI [50]: > 100 µM
- TGI [51]: > 100 µM
- TGI [52]: > 100 µM
- TGI [53]: > 100 µM
- TGI [54]: > 100 µM
- TGI [55]: > 100 µM

SMILES: O=c1[nH]cnc2c1ncn2C1CCC(CO)O1 (stereo not drawn)
- TGI [2]: > 1000 µM
- GI50 [3]: > 1000 µM
- TGI [3]: > 1000 µM
- GI50 [5]: > 1000 µM
- TGI [5]: > 1000 µM
- GI50 [6]: > 1000 µM
- TGI [6]: > 1000 µM
- GI50 [56]: > 1000 µM
- TGI [56]: > 1000 µM
- GI50 [7]: > 1000 µM
- TGI [7]: > 1000 µM
- TGI [8]: > 1000 µM
- GI50 [9]: > 1000 µM
- TGI [9]: > 1000 µM
- GI50 [10]: > 1000 µM
- TGI [10]: > 1000 µM
- GI50 [11]: > 1000 µM
- TGI [11]: > 1000 µM
- GI50 [12]: > 1000 µM
- TGI [12]: > 1000 µM
- GI50 [13]: > 1000 µM
- TGI [13]: > 1000 µM
- GI50 [14]: > 1000 µM
- TGI [14]: > 1000 µM
- TGI [15]: > 1000 µM
- GI50 [16]: > 1000 µM
- TGI [16]: > 1000 µM
- TGI [17]: > 1000 µM
- TGI [18]: > 1000 µM
- TGI [20]: > 1000 µM
- GI50 [21]: > 1000 µM
- TGI [21]: > 1000 µM
- GI50 [22]: > 1000 µM
- TGI [22]: > 1000 µM
- TGI [23]: > 1000 µM
- GI50 [24]: > 1000 µM
- TGI [24]: > 1000 µM
- GI50 [26]: > 1000 µM
- TGI [26]: > 1000 µM
- TGI [27]: > 1000 µM
- TGI [28]: > 1000 µM
- GI50 [29]: > 1000 µM
- TGI [29]: > 1000 µM
- TGI [30]: > 1000 µM
- GI50 [31]: > 1000 µM
- TGI [31]: > 1000 µM
- TGI [32]: > 1000 µM
- GI50 [33]: > 1000 µM
- TGI [33]: > 1000 µM
- GI50 [57]: > 1000 µM
- TGI [57]: > 1000 µM
- GI50 [36]: > 1000 µM
- TGI [36]: > 1000 µM
- GI50 [38]: > 1000 µM
- TGI [38]: > 1000 µM
- GI50 [39]: > 1000 µM
- TGI [39]: > 1000 µM
- GI50 [40]: > 1000 µM
- TGI [40]: > 1000 µM
- GI50 [41]: > 1000 µM
- TGI [41]: > 1000 µM
- GI50 [42]: > 1000 µM
- TGI [42]: > 1000 µM
- GI50 [43]: > 1000 µM
- TGI [43]: > 1000 µM
- GI50 [44]: > 1000 µM
- TGI [44]: > 1000 µM
- GI50 [46]: > 1000 µM
- TGI [46]: > 1000 µM
- GI50 [47]: > 1000 µM
- TGI [47]: > 1000 µM
- TGI [48]: > 1000 µM
- TGI [49]: > 1000 µM
- GI50 [50]: > 1000 µM
- TGI [50]: > 1000 µM
- GI50 [51]: > 1000 µM
- TGI [51]: > 1000 µM
- GI50 [52]: > 1000 µM
- TGI [52]: > 1000 µM
- GI50 [58]: > 1000 µM
- TGI [58]: > 1000 µM
- TGI [53]: > 1000 µM
- GI50 [55]: > 1000 µM
- TGI [55]: > 1000 µM

SMILES: NCCC1([N+](=O)[O-])C=CN=CC1 (stereo not drawn)
- TGI [1]: > 100 µM
- TGI [2]: > 100 µM
- TGI [3]: > 100 µM
- TGI [4]: > 100 µM
- TGI [5]: > 100 µM
- TGI [6]: > 100 µM
- TGI [56]: > 100 µM
- TGI [7]: > 100 µM
- TGI [8]: > 100 µM
- TGI [10]: > 100 µM
- TGI [11]: > 100 µM
- TGI [12]: > 100 µM
- TGI [13]: > 100 µM
- TGI [14]: > 100 µM
- TGI [15]: > 100 µM
- TGI [16]: > 100 µM
- TGI [17]: > 100 µM
- TGI [18]: > 100 µM
- TGI [19]: > 100 µM
- TGI [20]: > 100 µM
- TGI [21]: > 100 µM
- TGI [22]: > 100 µM
- TGI [23]: > 100 µM
- TGI [24]: > 100 µM
- TGI [25]: > 100 µM
- TGI [26]: > 100 µM
- TGI [27]: > 100 µM
- TGI [28]: > 100 µM
- TGI [30]: > 100 µM
- TGI [31]: > 100 µM
- TGI [32]: > 100 µM
- TGI [33]: > 100 µM
- TGI [57]: 26.8 µM
- TGI [34]: > 100 µM
- TGI [35]: > 100 µM
- TGI [36]: > 100 µM
- TGI [37]: > 100 µM
- TGI [38]: > 100 µM
- TGI [39]: > 100 µM
- TGI [40]: > 100 µM
- TGI [41]: > 100 µM
- TGI [42]: > 100 µM
- TGI [44]: > 100 µM
- TGI [45]: > 100 µM
- TGI [46]: > 100 µM
- TGI [47]: > 100 µM
- TGI [48]: > 100 µM
- TGI [49]: > 100 µM
- TGI [50]: > 100 µM
- TGI [51]: > 100 µM
- TGI [52]: > 100 µM
- TGI [59]: > 100 µM
- TGI [53]: > 100 µM
- TGI [54]: > 100 µM

SMILES: CN(C)C1C(CO)OC(n2cnc3c(N)ncnc32)C1O (stereo not drawn)
- TGI [1]: > 100 µM
- TGI [2]: > 100 µM
- TGI [3]: > 100 µM
- TGI [4]: > 100 µM
- TGI [5]: > 100 µM
- TGI [6]: > 100 µM
- TGI [7]: > 100 µM
- TGI [8]: > 100 µM
- TGI [9]: > 100 µM
- TGI [10]: > 100 µM
- TGI [11]: > 100 µM
- TGI [12]: > 100 µM
- TGI [13]: > 100 µM
- TGI [14]: > 100 µM
- TGI [15]: > 100 µM
- TGI [16]: > 100 µM
- TGI [17]: > 100 µM
- TGI [18]: > 100 µM
- TGI [19]: > 100 µM
- TGI [20]: > 100 µM
- TGI [21]: > 100 µM
- TGI [22]: > 100 µM
- TGI [23]: > 100 µM
- TGI [24]: > 100 µM
- TGI [25]: > 100 µM
- TGI [26]: > 100 µM
- TGI [27]: > 100 µM
- TGI [28]: > 100 µM
- TGI [29]: > 100 µM
- TGI [30]: > 100 µM
- TGI [31]: > 100 µM
- TGI [32]: > 100 µM
- TGI [33]: > 100 µM
- TGI [34]: > 100 µM
- TGI [35]: > 100 µM
- TGI [36]: > 100 µM
- TGI [37]: > 100 µM
- TGI [38]: > 100 µM
- TGI [39]: > 100 µM
- TGI [40]: > 100 µM
- TGI [41]: > 100 µM
- TGI [42]: > 100 µM
- TGI [43]: > 100 µM
- TGI [44]: > 100 µM
- TGI [45]: > 100 µM
- TGI [46]: > 100 µM
- TGI [47]: > 100 µM
- TGI [48]: > 100 µM
- TGI [49]: > 100 µM
- TGI [50]: > 100 µM
- TGI [51]: > 100 µM
- TGI [52]: > 100 µM
- TGI [53]: > 100 µM
- TGI [54]: > 100 µM
- TGI [55]: > 100 µM
